Experimental data taken from patent US11039997B2, “Cosmetic, dermatic, protective compositions comprising phospholipids, lecithins with peptides and at least one acetylating compound” (priority 2005, dated 2021).

Legend:
[1] = molecular target: T1, paf receptors of formaldehyde-treated platelets (Homo sapiens, UniProt P25105); experiment: Binding of [3H]alkyl-paf to formaldehyde-fixed platelets (FIGS. 6 and 7); conditions: 30 min; for inhibition of bound [3H]alkyl-paf to stiffened platelets: FIG. 7, [3H]alkyl-paf 0.65 nM, 20° C., n=4
T1 construct: endogenous in cells; host or cells: washed platelets fixed with 1% formaldehyde for 30 min
T1 sequence (P25105 whole entry): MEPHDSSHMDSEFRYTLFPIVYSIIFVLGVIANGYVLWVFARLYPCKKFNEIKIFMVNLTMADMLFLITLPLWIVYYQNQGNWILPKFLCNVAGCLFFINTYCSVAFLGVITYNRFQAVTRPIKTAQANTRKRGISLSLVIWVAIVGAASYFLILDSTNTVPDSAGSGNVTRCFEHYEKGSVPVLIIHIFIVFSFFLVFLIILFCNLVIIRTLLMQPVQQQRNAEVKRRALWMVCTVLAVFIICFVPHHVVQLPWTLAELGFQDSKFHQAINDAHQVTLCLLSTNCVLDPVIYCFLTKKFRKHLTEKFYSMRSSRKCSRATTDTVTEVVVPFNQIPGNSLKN
Experimental: An extract of whole blood, namely “biological paf” replaces [^3H]alkyl-paf out of the binding and bind to similar alkyl receptors. This competitive inhibition is paralleled with similar effects of synthetic paf and with Ginkgoloides wherein WEB 2086 is used here as the known guiding substance for chlorobenzo(dia)zepines.
“Biological paf” is used here for the first time as non-separated ethanol extract of whole blood (without HPLC). This dry extract is diluted before it is quantified using aggregation of rabbit platelets in the presence of aspirin and CP/CPK. The novel methods allow for the first time testings without albumin so that alkyl ligands with lower cell affinity compared to albumin can bind in a detectable manner. For example, alkyl lipids without the choline group (alkyl-LPA) bind otherwise in deeper regions of the membranes of untreated cells and/or are rapidly incorporated into free albumin. In addition, the method is independent from calcium so that also calcium-independent alkyl ligands can be inhibited here (e.g. lyso paf). The clinical success against alkyl ligands is thus supported and can be carried out by skilled persons.
The FIGS. 5 to 7 thus show the novel screening procedure solves a novel technical problem, namely the variety of damaging alkyl lipids. The quantification is easier using fixed cells as the difficult acetylation step of alkyl lipids is removed which is required for calcium dependent quantification methods. Using fixed cells, cell lines also labelled antibodies and/or soluble transport-binding proteins can be tested and produced.
(§1) FIGS. 5 to 7 investigated for the first time binding of [^3H]alkyl-paf or [^3H]acetyl group after treatment with formaldehyde (1%, 30 min) comparing different temperatures, indicated concentrations and said Ginkgoloides. The allosteric binding of [^3H]alkyl groups was reached only at 20° C. while [^3H]acetyl groups bound at 4° C. excluding allosteric effects.
Platelets were treated with formaldehyde (1%, 30 min, n=6). Values are expressed as bound [^3H]alkyl-paf to […]. […]

[2] = system: metabolic syndrome mediated by LA-paf; conditions: Wu et al. J. Int. Med. 246, 1999; cited from earlier work
[3] = system: washed aspirinated platelets; experiment: Binding of [3H]alkyl-paf / [3H]alkyl-lyso paf to washed aspirinated platelets and formation of AAGPC, LA-paf (FIG. 2); format: cell-based, human; conditions: FIG. 2C; normolipidemic platelets, [3H]-alkyl-lyso paf 0.065 nM, 40 nM antagonist, 0.25% BSA
Experimental: These women with “OMIH”-syndrome show overweight (aged 34±11 years, BMI: […]), raised LDL (167±15 mg/dl, HDL: 76±41 mg/dl) and triglyceride levels (206±27 mg/dl) borderline hypertension (125±13/88±10 mmHg) and disturbed glucose tolerance (1 h: 170±61 mg/dl).
Ginkgoloides with free albumin (BSA) inhibited here the binding of [^3H]alkyl-paf to “OMIH”-platelets after three washes (FIG. 2 A+B). […] Normolipidemic platelets do nearly not incorporate [^3H]alkyl-paf or [^3H]alkyl-lyso paf and form nearly no AAGPC and LA-paf in the presence of Ginkgoloides and free albumin (FIG. 2C).
AAGPC and LA-paf are chemically alkyl-acyl-sn-glycero-phosphocholines. […] Values are fmol per 10^8 platelets and are means±1 S.D. from three different experiments as described (R. Korth et al. Chem. Phys. Lipids 70(1994), 109-119).

[4] = molecular target: T1, paf receptors of formaldehyde-treated platelets; experiment: Binding of [3H]acetyl paf to formaldehyde-fixed platelets at 4° C. (FIG. 5); conditions: unlabeled paf 50 nM, [3H]acetyl paf 0.65 nM or 0.065 nM
Experimental: (FIG. 5D versus 5C). The allosteric alkyl effects are inhibited by stiffening of the membrane so that the scavenger-like allosteric configuration change of cells is shown as mentioned before. In contrast, the [^3H]acetyl group of paf binds at 4° C. to fixed cells treated prior to the last wash with formaldehyde to be subsequently cooled and stiffened (1%, 30 min, A+B). The acetyl group binds and covers paf receptors without allosteric upregulation so that acetylating compounds are using this effect in accordance with the invention.
as §1
Unlabeled paf (50 nM) competed showing specific binding of [^3H]acetyl paf. […] Next, [^3H]alkyl-paf failed binding to stiffened platelets at 4° C. showing moderate specific binding only at 20° C. (C: 0.65 nM, 30 min, 20° C.). […] Values are expressed as bound labelled ligands to 10^8 platelets. Platelets were separated with vacuum filtration and means±1 S.D. are from three experiments.

human neutrophils = experiment: Formation of labeled AAGPC+LA-paf by neutrophils (FIG. 4); format: cell-based; conditions: 0.25% BSA
Experimental: The non-differentiated washed blood leukocytes incorporate here [^3H]alkyl-paf with intermediate of [^3H]alkyl-lyso paf and form alkyl lipids (AAGPC+LA paf) in a saturated manner (A: 0.65 nM vs. B: 6.5 nM) wherein unlabelled paf fails to replace (B, 5 nM). Thus, at least one non-specific transport protein is indicated (e.g. acetylhydrolase) on undifferentiated cells. The less differentiated cells are invented here as a model for monocytes, endothelial cells, glia cells, cartilage cells, adipocytes, endogenous stem cells etc. The acetylhydrolases on plasma membranes of leukocytes remove alkyl lipids and these cells are then pre-activated, differentiated and ready to emigrate. Non-specific antagonists e.g. free albumin protect against alkyl ligands and compete with cells for binding of alkyl lipids. The fatty decline of cells in the entire organisms is clinically healed here. […]
Washed intact cells were incubated with normal or excess concentrations of [^3H]-alkyl-paf forming then the stable amount of AAGPC & LA (A: 0.65 nM or B: 6.5 nM). […] Values are expressed as percent of added label (2.5×10^6 cells/500μl, 0.25% BSA, n=3, see R.-M. Korth, Int. Arch. All. Imm. 113, p 460-464, 1997). […]

intact human platelets = experiment: Lipoprotein-triggered catabolism of [3H]alkyl-paf and formation of AAGPC and LA-paf by intact platelets (FIG. 3); format: cell-based; conditions: FIG. 3 C+D; [3H]alkyl-paf 0.65 nM; apo B 0.1 mg/ml, VLDL 80 μg/ml
Experimental: Only LDL but not ApoB and not VLDL overcome the protection by albumin (FIG. 3E versus 3D). […] In the presence (A+C) or absence (B) of washed platelets nearly no AAGPC with derivatives and products is formed. The acetylhydrolases form lyso paf and LDL, of apoB and VLDL also form lyso paf whereby the uptake of lyso paf is triggered by LDL.
[^3H]alkyl-lyso paf was stable in the albumin buffer as well (B: 0.25% BSA, 30 min, 20° C.). […] Overall, purified LDL-particles rather than isolated apoB trigger uptake and formation of AAGPC and/or LA-paf. Values are expressed as percent of added label bound to platelets. Cells were separated using vacuum filtration as described (R. Korth et al. Chem. Phys. Lipids 70, 109-119, 1994). Values were expressed as percent of added label. Values are means±1.S.D. of three different experiments.

## CC1C(=O)OC2C(O)C34C5CC(C(C)(C)C)C36C(OC(=O)C6O)OC4(C(=O)O5)C12O (stereo not drawn) [BN 52021]
[1]; FIG. 6, platelets treated with formaldehyde 1%, 30 min 20° C.
  inhibition of bound [3H]alkyl-paf: concentration-dependent inhibition

## Cc1nnc2n1-c1sc(CCC(=O)N3CCOCC3)cc1C(c1ccccc1Cl)=NC2 [WEB 2086]
[2]
  treatment of metabolic syndrome with thickening of the intima and borderline hypertension: successfully treated
[1]
  inhibition of bound [3H]alkyl-paf to stiffened platelets: inhibited
[3]
  formation of cellular metabolites (AAGPC, LA-paf) from [3H]-alkyl-lyso paf: without relevant formation of indicated cellular metabolites

## CCCCCCCCCCCCCCCCOC[C@H](COP(=O)([O-])OCC[N+](C)(C)C)OC(C)=O [synthetic paf]
[4]
  competition with [3H]acetyl paf binding: competed
Human neutrophils; unlabeled paf 5 nM, [3H]-alkyl-paf 0.65 nM or 6.5 nM, n=3
  competition with formation of AAGPC/LA-paf: did not compete
[1]
  inhibition of bound [3H]alkyl-paf to stiffened platelets: inhibited at low concentrations

## ApoB: isolated apo B (Sigma Chemical)
Intact human platelets
  formation of lyso paf and cellular uptake: form lyso paf without cellular uptake

## Purified albumin: free, delipidated albumin (BSA), representative non-specific antagonist
Human neutrophils
  protection of intact cells as non-specific antagonist: protected
